After the bases stand the sugars from the 5' end (letter, count) and the backbone: PS all phosphorothioate, else s phosphorothioate and o phosphodiester by linkage. Methylation of C is not given here. e = 2'-O-(2-methoxyethyl) (MOE); k = constrained ethyl (cEt); d = 2'-deoxy (DNA)
Target: APOL1
Details: ASO

Q: TCAGATGGGTACTTCT (sugars k4 d9 k3, PS) was tested. Which target mRNA inhibition (A431, 0.0625 µM) did it give?
A: 38%

Q: What about the target mRNA inhibition (A431, 0.25 µM) of the same sequence?
A: 66%

Q: What about the target mRNA inhibition (A431, 1 µM) of the same sequence?
A: 83%

Q: For “TCAGATGGGTACTTCT (sugars kkkddddkekekdddd, PS)”, which target mRNA inhibition (A431, 2 µM) is on record?
A: 50%

Q: How did the target mRNA inhibition (A431, 0.0625 µM) turn out when TCAGCTAAGACCAGTG (sugars k4 d9 k3, PS) was run?
A: 53%

Q: And the target mRNA inhibition (A431, 0.25 µM)?
A: 78%

Q: What about the target mRNA inhibition (A431, 1 µM) of the same sequence?
A: 89%

Q: How did the target mRNA inhibition (A431, 0.0625 µM) turn out when TCAGCTATGGAAATGC (sugars k4 d9 k3, PS) was run?
A: 45%

Q: And the target mRNA inhibition (A431, 0.25 µM)?
A: 78%

Q: What about the target mRNA inhibition (A431, 1 µM) of the same sequence?
A: 92%

Q: With TCATAGATACTCCTCA (sugars k3 d10 k3, PS) as the sequence, how does the target mRNA inhibition (A431, 0.0156 µM) read?
A: 8%

Q: And the target mRNA inhibition (A431, 0.0625 µM)?
A: 17%

Q: What about the target mRNA inhibition (A431, 0.25 µM) of the same sequence?
A: 51%

Q: And the target mRNA inhibition (A431, 1 µM)?
A: 80%

Q: Which target mRNA inhibition (A431, 0.0625 µM) does the source give for TCATCATAGATACTCC (sugars k4 d9 k3, PS) here?
A: 33%

Q: What about the target mRNA inhibition (A431, 0.25 µM) of the same sequence?
A: 67%

Q: What about the target mRNA inhibition (A431, 1 µM) of the same sequence?
A: 84%

Q: With TCATTAGTGCTATAGA (sugars k4 d9 k3, PS) as the sequence, how does the target mRNA inhibition (A431, 0.0625 µM) read?
A: 25%

Q: And the target mRNA inhibition (A431, 0.25 µM)?
A: 71%

Q: And the target mRNA inhibition (A431, 1 µM)?
A: 86%

Q: Which target mRNA inhibition (A431, 0.0625 µM) does the source give for TCCAGATGTGTTTAGG (sugars k4 d9 k3, PS) here?
A: 82%

Q: And the target mRNA inhibition (A431, 0.25 µM)?
A: 89%

Q: And the target mRNA inhibition (A431, 1 µM)?
A: 94%

Q: Which target mRNA inhibition (A431, 0.0625 µM) does the source give for TCCGTCAATATATTCT (sugars k3 d10 k3, PS) here?
A: 83%

Q: And the target mRNA inhibition (A431, 0.25 µM)?
A: 96%

Q: What about the target mRNA inhibition (A431, 1 µM) of the same sequence?
A: 98%

Q: Which target mRNA inhibition (A431, 2 µM) does the source give for “TCCGTCAATATATTCT (sugars kkddddkekekddddd, PS)” here?
A: 94%

Q: How did the target mRNA inhibition (A431, 0.0156 µM) turn out when “TCCGTCAATATATTCT (sugars kkkddddkekekdddd, PS)” was run?
A: 30%

Q: And the target mRNA inhibition (A431, 0.04 µM)?
A: 50%

Q: And the target mRNA inhibition (A431, 0.0625 µM)?
A: 57%

Q: What about the target mRNA inhibition (A431, 0.25 µM) of the same sequence?
A: 84%

Q: What about the target mRNA inhibition (A431, 1 µM) of the same sequence?
A: 94%

Q: What about the target mRNA inhibition (A431, 2 µM) of the same sequence?
A: 95%

Q: TCCGTTCCAGGCCTCA (sugars k4 d9 k3, PS) was tested. Which target mRNA inhibition (A431, 0.0625 µM) did it give?
A: 29%

Q: What about the target mRNA inhibition (A431, 0.25 µM) of the same sequence?
A: 44%

Q: What about the target mRNA inhibition (A431, 1 µM) of the same sequence?
A: 58%

Q: With TCCTGGGCGGCGACAA (sugars k4 d9 k3, PS) as the sequence, how does the target mRNA inhibition (A431, 0.0625 µM) read?
A: 46%

Q: What about the target mRNA inhibition (A431, 0.25 µM) of the same sequence?
A: 74%

Q: And the target mRNA inhibition (A431, 1 µM)?
A: 85%

Q: For “TCTATTAGAGGGCTAG (sugars k3 d4 k3 e1 d5, PS)”, which target mRNA inhibition (A431, 2 µM) is on record?
A: 51%

Q: “TCTATTAGAGGGCTAG (sugars kkdddddkekeddddd, PS)” was tested. Which target mRNA inhibition (A431, 2 µM) did it give?
A: 72%

Q: Which target mRNA inhibition (A431, 2 µM) does the source give for “TCTATTAGAGGGCTAG (sugars kkddddkdkdkddddd, PS)” here?
A: 68%

Q: “TCTATTAGAGGGCTAG (sugars kkddddkekekddddd, PS)” was tested. Which target mRNA inhibition (A431, 2 µM) did it give?
A: 52%

Q: With “TCTATTAGAGGGCTAG (sugars kkddddkekekkdddd, PS)” as the sequence, how does the target mRNA inhibition (A431, 2 µM) read?
A: 25%

Q: How did the target mRNA inhibition (A431, 2 µM) turn out when “TGGGAATTATGGAATT (sugars kkddddkekekddddd, PS)” was run?
A: 87%

Q: How did the target mRNA inhibition (A431, 0.0625 µM) turn out when TGGGTCAAAAGCGATG (sugars k4 d9 k3, PS) was run?
A: 25%

Q: And the target mRNA inhibition (A431, 0.25 µM)?
A: 54%

Q: What about the target mRNA inhibition (A431, 1 µM) of the same sequence?
A: 77%

Q: For “TGGTTCAAAAGCAGCA (sugars kkddddekekeddddd, PS)”, which target mRNA inhibition (A431, 2 µM) is on record?
A: 82%

Q: How did the target mRNA inhibition (A431, 2 µM) turn out when “TGGTTCAAAAGCAGCA (sugars kkddddkekekddddd, PS)” was run?
A: 68%

Q: How did the target mRNA inhibition (A431, 2 µM) turn out when “TGGTTCAAAAGCAGCA (sugars kkkddddkekekdddd, PS)” was run?
A: 57%

Q: How did the target mRNA inhibition (A431, 2 µM) turn out when “TGTAAGTGCAACCAAT (sugars kdddddkekekddddd, PS)” was run?
A: 81%

Q: How did the target mRNA inhibition (A431, 2 µM) turn out when “TGTATTTCTTGATGTG (sugars k2 d4 e3 k2 d5, PS)” was run?
A: 87%

Q: For “TGTTATATTTGATCCT (sugars k2 d4 e3 k2 d5, PS)”, which target mRNA inhibition (A431, 2 µM) is on record?
A: 87%

Q: What does the source list for “TGTTATATTTGATCCT (sugars kekddddeekkddddd, PS)”?
A: target mRNA inhibition (A431, 0.0156 µM): 31%; target mRNA inhibition (A431, 0.0625 µM): 40%; target mRNA inhibition (A431, 0.25 µM): 70%; target mRNA inhibition (A431, 1 µM): 89%; target mRNA inhibition (A431, 2 µM): 94%

Q: Which target mRNA inhibition (A431, 0.0156 µM) does the source give for “TGTTATATTTGATCCT (sugars kkdddddkekeddddd, PS)” here?
A: 33%

Q: And the target mRNA inhibition (A431, 0.04 µM)?
A: 50%

Q: What about the target mRNA inhibition (A431, 0.0625 µM) of the same sequence?
A: 59%

Q: What about the target mRNA inhibition (A431, 0.25 µM) of the same sequence?
A: 81%

Q: And the target mRNA inhibition (A431, 1 µM)?
A: 92%

Q: And the target mRNA inhibition (A431, 2 µM)?
A: 92%

Q: For “TGTTATATTTGATCCT (sugars kkddddkdkdkddddd, PS)”, which target mRNA inhibition (A431, 2 µM) is on record?
A: 86%

Q: “TGTTATATTTGATCCT (sugars kkkddddkdkdkdddd, PS)” was tested. Which target mRNA inhibition (A431, 2 µM) did it give?
A: 66%

Q: How did the target mRNA inhibition (A431, 2 µM) turn out when “TTATACCAGTGTCTTC (sugars kdddddkekekddddd, PS)” was run?
A: 82%

Q: With “TTATATTTGATCCTCA (sugars kddddkekekeddddd, PS)” as the sequence, how does the target mRNA inhibition (A431, 2 µM) read?
A: 39%

Q: Which target mRNA inhibition (A431, 2 µM) does the source give for “TTATATTTGATCCTCA (sugars kkddddekekeddddd, PS)” here?
A: 96%

Q: How did the target mRNA inhibition (A431, 0.0156 µM) turn out when “TTATATTTGATCCTCA (sugars kkddddkdkdkddddd, PS)” was run?
A: 15%

Q: And the target mRNA inhibition (A431, 0.0625 µM)?
A: 44%

Q: What about the target mRNA inhibition (A431, 0.25 µM) of the same sequence?
A: 76%

Q: And the target mRNA inhibition (A431, 1 µM)?
A: 93%

Q: What about the target mRNA inhibition (A431, 2 µM) of the same sequence?
A: 96%

Q: How did the target mRNA inhibition (A431, 2 µM) turn out when “TTATGAAATTATTGGT (sugars k2 d4 e4 k2 d4, PS)” was run?
A: 35%

Q: For “TTATTCTCATGGTACA (sugars kkddddkekekddddd, PS)”, which target mRNA inhibition (A431, 2 µM) is on record?
A: 47%

Q: For TTATTGCAGGCTCCAA (sugars k4 d9 k3, PS), which target mRNA inhibition (A431, 0.0625 µM) is on record?
A: 39%

Q: And the target mRNA inhibition (A431, 0.25 µM)?
A: 47%

Q: What about the target mRNA inhibition (A431, 1 µM) of the same sequence?
A: 76%

Q: How did the target mRNA inhibition (A431, 0.0625 µM) turn out when TTCAGAATTTCCACTA (sugars k4 d9 k3, PS) was run?
A: 40%

Q: And the target mRNA inhibition (A431, 0.25 µM)?
A: 67%

Q: What about the target mRNA inhibition (A431, 1 µM) of the same sequence?
A: 87%

Q: How did the target mRNA inhibition (A431, 2 µM) turn out when “TTCAGAATTTCCACTA (sugars kdddddkekekddddd, PS)” was run?
A: 87%

Q: How did the target mRNA inhibition (A431, 2 µM) turn out when “TTCAGAATTTCCACTA (sugars kkddddkekekkdddd, PS)” was run?
A: 58%

Q: How did the target mRNA inhibition (A431, 0.0625 µM) turn out when TTCAGCTAAGACCAGT (sugars k4 d9 k3, PS) was run?
A: 35%

Q: What about the target mRNA inhibition (A431, 0.25 µM) of the same sequence?
A: 71%

Q: And the target mRNA inhibition (A431, 1 µM)?
A: 88%

Q: What does the source list for TTCATGATCATTTGTC (sugars k4 d9 k3, PS)?
A: target mRNA inhibition (A431, 0.0625 µM): 47%; target mRNA inhibition (A431, 0.25 µM): 68%; target mRNA inhibition (A431, 1 µM): 81%

Q: How did the target mRNA inhibition (A431, 2 µM) turn out when “TTCTATTAGAGGGCTA (sugars kdddddkekekddddd, PS)” was run?
A: 45%

Q: How did the target mRNA inhibition (A431, 2 µM) turn out when “TTCTATTAGAGGGCTA (sugars kddddkekekeddddd, PS)” was run?
A: 34%

Q: Which target mRNA inhibition (A431, 2 µM) does the source give for “TTCTATTAGAGGGCTA (sugars kkddddkdkdkddddd, PS)” here?
A: 87%

Q: How did the target mRNA inhibition (A431, 2 µM) turn out when “TTCTATTAGAGGGCTA (sugars kkddddkekekkdddd, PS)” was run?
A: 26%

Q: How did the target mRNA inhibition (A431, 2 µM) turn out when “TTCTATTAGAGGGCTA (sugars kkkddddkekekdddd, PS)” was run?
A: 42%

Q: Which target mRNA inhibition (A431, 2 µM) does the source give for “TTCTCATGGTACAGGA (sugars k3 d4 k3 e1 d5, PS)” here?
A: 44%

Q: How did the target mRNA inhibition (A431, 2 µM) turn out when “TTCTCATGGTACAGGA (sugars kkddddekekeddddd, PS)” was run?
A: 79%

Q: With “TTCTCATGGTACAGGA (sugars kkddddkekekkdddd, PS)” as the sequence, how does the target mRNA inhibition (A431, 2 µM) read?
A: 20%

Q: How did the target mRNA inhibition (A431, 2 µM) turn out when “TTCTCATGGTACAGGA (sugars kkkddddkekekdddd, PS)” was run?
A: 54%

Q: What does the source list for TTGATGAGTAGGTGAG (sugars k4 d9 k3, PS)?
A: target mRNA inhibition (A431, 0.0625 µM): 72%; target mRNA inhibition (A431, 0.25 µM): 81%; target mRNA inhibition (A431, 1 µM): 85%

Q: What does the source list for TTGGGTCAAAAGCGAT (sugars k4 d9 k3, PS)?
A: target mRNA inhibition (A431, 0.0625 µM): 56%; target mRNA inhibition (A431, 0.25 µM): 86%; target mRNA inhibition (A431, 1 µM): 93%

Q: Which target mRNA inhibition (A431, 2 µM) does the source give for “TTGTAAGTGCAACCAA (sugars k3 d4 k3 e1 d5, PS)” here?
A: 78%

Q: With “TTGTAAGTGCAACCAA (sugars kkddddekekeddddd, PS)” as the sequence, how does the target mRNA inhibition (A431, 2 µM) read?
A: 87%

Q: Which target mRNA inhibition (A431, 2 µM) does the source give for “TTGTAAGTGCAACCAA (sugars kkddddkekekkdddd, PS)” here?
A: 54%

Q: For “TTGTAAGTGCAACCAA (sugars kkkddddkekekdddd, PS)”, which target mRNA inhibition (A431, 2 µM) is on record?
A: 35%

Q: Which target mRNA inhibition (A431, 2 µM) does the source give for “TTTAAACTCAGGTGAC (sugars kddddkekekeddddd, PS)” here?
A: 43%

Source: the OligoGym collection
